# Where “and” joins values, the source holds several entries; their conditions need not be identical. Equal entries are not always repeated. Inconclusive results and toxic doses are left out. Numbered stars: 1 amine (or outer) side, 2 acyl side, 3 side chain; on linkers, the order of the positions; unused ones are H or OH. Bridge positions count the residues as written; N and C are the ends. Square brackets hold non-standard residues; d marks the D form. Peptide text beside a SMILES is read from it. I, II: the chains in the order shown. * marks the point of attachment. Actinocin(1to9) = Cc1c2oc3c(C)ccc(C(=O)[*:2])c3nc-2c(C(=O)[*:1])c(N)c1=O; Quinoxaline2carbonyl = O=C(c1cnc2ccccc2n1)*; NMeV = CN[CH](C(=O)O)C(C)C; NMeC = CN[CH](CS)C(=O)O; Aze = O=C(O)[CH]1CCN1; Sar = CNCC(=O)O
# Tested on: BDF1 mice, B16 melanoma ip, median survival T/C
# Experiment: NCI In Vivo Anticancer Drug Screen. Data for tumor model B16 Melanoma (intraperitoneal) in B6D2F1 (BDF1) mice
# Conditions: endpoint: median survival time, higher = longer survival
# Method in brief: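 Each result divides a survival or tumor-size measurement in the compound-treated group by the same measurement in the vehicle group.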
# [1] = dose: 12.5 mg/kg/injection, schedule: Q01DX009 (ip), vehicle: saline
# [2] = dose: 25.0 mg/kg/injection, schedule: Q01DX009 (ip), vehicle: saline
# [3] = dose: 50.0 mg/kg/injection, schedule: Q01DX009 (ip), vehicle: saline
# [4] = dose: 50.0 mg/kg/injection, schedule: Q01DX009 (ip), vehicle: saline with Tween-80
# [5] = dose: 100.0 mg/kg/injection, schedule: Q01DX009 (ip), vehicle: saline with Tween-80
# [6] = dose: 200.0 mg/kg/injection, schedule: Q01DX009 (ip), vehicle: saline with Tween-80
# [7] = dose: 100.0 mg/kg/injection, schedule: Q01DX009 (ip), vehicle: Klucel (hydroxypropylcellulose) (HPC)
# [8] = dose: 50.0 mg/kg/injection, schedule: Q01DX009 (ip), vehicle: Klucel (hydroxypropylcellulose) (HPC)
# [9] = dose: 25.0 mg/kg/injection, schedule: Q01DX009 (ip), vehicle: saline with Tween-80
# [10] = dose: 6.25 mg/kg/injection, schedule: Q01DX009 (ip), vehicle: saline with Tween-80
# [11] = dose: 12.5 mg/kg/injection, schedule: Q01DX009 (ip), vehicle: saline with Tween-80
# [12] = dose: 200.0 mg/kg/injection, schedule: Q01DX009 (ip), vehicle: Klucel (hydroxypropylcellulose) (HPC)
# [13] = dose: 6.25 mg/kg/injection, schedule: Q01DX009 (ip), vehicle: saline
smiles,measurement,setting,value
"CC1NC(=O)C(NC(=O)c2cnc3ccccc3n2)COC(=O)C(C(C)C)N(C)C(=O)C2CSSCC(C(=O)N(C)C(C(C)C)C(=O)OCC(NC(=O)c3cnc4ccccc4n3)C(=O)NC(C)C(=O)N2C)N(C)C1=O (stereo unspecified) (I: Quinoxaline2carbonyl-SA[NMeC][NMeV] / II: Quinoxaline2carbonyl-SA[NMeC][NMeV]; ester I:1-II:C, I:C-II:1; disulfide I:3-II:3; configuration not given here)",T/C,"dose: 3.0 micrograms/kg/injection, schedule: Q01DX009 (ip), vehicle: Klucel (hydroxypropylcellulose) (HPC)",111 % of control
same,T/C,"dose: 6.0 micrograms/kg/injection, schedule: Q01DX009 (ip), vehicle: Klucel (hydroxypropylcellulose) (HPC)",122 % of control
same,T/C,"dose: 22.5 micrograms/kg/injection, schedule: Q01DX009 (ip), vehicle: Klucel (hydroxypropylcellulose) (HPC)",169 % of control
same,T/C,"dose: 24.0 micrograms/kg/injection, schedule: Q01DX009 (ip), vehicle: Klucel (hydroxypropylcellulose) (HPC)",151 % of control
same,T/C,"dose: 45.0 micrograms/kg/injection, schedule: Q01DX009 (ip), vehicle: Klucel (hydroxypropylcellulose) (HPC)",187 % of control
same,T/C,"dose: 48.0 micrograms/kg/injection, schedule: Q01DX009 (ip), vehicle: Klucel (hydroxypropylcellulose) (HPC)",161 % of control
same,T/C,"dose: 96.0 micrograms/kg/injection, schedule: Q01DX009 (ip), vehicle: Klucel (hydroxypropylcellulose) (HPC)",188 % of control
CCCSc1ccccc1N1CCN(CC(COC)OC)CC1 (stereo unspecified),T/C,[1],101 % of control
same,T/C,[2],100 % of control
same,T/C,[3],96 % of control
CC(=O)N\C(N)=N/N=C\C(C)=N/N=C(\N)NC(C)=O,T/C,[4],108 % of control
same,T/C,[5],99 % of control
same,T/C,[6],94 % of control
O=C(/C=C/C(=O)Oc1c(Cl)c(Cl)c(Cl)c(Cl)c1Cl)Oc1c(Cl)c(Cl)c(Cl)c(Cl)c1Cl,T/C,[7],86 % of control
COc1ccc(NC(=O)Nc2cc(Cl)ccc2OC)cc1,T/C,"dose: 25.0 mg/kg/injection, schedule: Q01DX009 (ip), vehicle: Klucel (hydroxypropylcellulose) (HPC)",92 % of control
same,T/C,[8],92 % of control
CC(C)(C)c1ccc(C(=O)C2CC2)cc1,T/C,[9],94 % of control
same,T/C,[4],99 % of control
same,T/C,[5],95 % of control
Nc1ccc(S(=O)(=O)N/N=C/c2ccccc2[N+](=O)[O-])cc1,T/C,"dose: 3.13 mg/kg/injection, schedule: Q01DX009 (ip), vehicle: saline with Tween-80",115 % of control
same,T/C,[10],96 % of control and 123 % of control
same,T/C,[11],99 % of control and 122 % of control
same,T/C,[9],105 % of control
same,T/C,[4],118 % of control
CCO/C=C1\SC(=S)N(c2ccc(OCC)cc2)C1=O,T/C,[12],92 % of control
O=C(C[n+]1ccc2ccccc2c1)c1ccccc1,T/C,[1],86 % of control
same,T/C,[2],86 % of control
same,T/C,[3],100 % of control
N#CCCCN1CCCCC1,T/C,[13],100 % of control
same,T/C,[1],100 % of control
same,T/C,[2],111 % of control
"Cc1c2oc3c(C)ccc(C(=O)NC4C(=O)NC(C(C)C)C(=O)N5CCCC5C(=O)N(C)CC(=O)N(C)C(C(C)C)C(=O)OC4C)c3nc-2c(C(=O)NC2C(=O)NC(C(C)C)C(=O)N3CCC3C(=O)N(C)CC(=O)N(C)C(C(C)C)C(=O)OC2C)c(N)c1=O (stereo unspecified) (I: TV[Aze][Sar][NMeV] / II: TVP[Sar][NMeV]; ester I:1-I:C, II:1-II:C; linker I:N-II:N via Actinocin(1to9); configuration not given here)",T/C,"dose: 0.23 mg/kg/injection, schedule: Q01DX009 (ip), vehicle: saline + alcohol",172 % of control
same,T/C,"dose: 0.3 mg/kg/injection, schedule: Q04DX003 (ip), vehicle: saline + alcohol",163 % of control
same,T/C,"dose: 19.4 micrograms/kg/injection, schedule: Q01DX009 (ip), vehicle: saline + alcohol",107 % of control
same,T/C,"dose: 37.0 micrograms/kg/injection, schedule: Q01DX009 (ip), vehicle: saline + alcohol",182 % of control
same,T/C,"dose: 75.0 micrograms/kg/injection, schedule: Q01DX009 (ip), vehicle: saline + alcohol",156 % of control and 190 % of control
same,T/C,"dose: 100.0 micrograms/kg/injection, schedule: Q01DX009 (ip), vehicle: saline + alcohol",151 % of control
same,T/C,"dose: 150.0 micrograms/kg/injection, schedule: Q01DX009 (ip), vehicle: saline + alcohol",159 % of control
same,T/C,"dose: 250.0 micrograms/kg/injection, schedule: Q01DX009 (ip), vehicle: saline + alcohol",153 % of control
C1CN2CN3CCN(CN1C3)C2,T/C,[1],99 % of control and 114 % of control
same,T/C,[2],103 % of control and 113 % of control
same,T/C,[3],123 % of control
CC1(c2ccc(N(CCCl)CCCl)cc2)NC(=O)NC1=O (stereo unspecified),T/C,"dose: 2.5 mg/kg/injection, schedule: Q01DX009 (ip), vehicle: Klucel (hydroxypropylcellulose) (HPC)",104 % of control
same,T/C,"dose: 5.0 mg/kg/injection, schedule: Q01DX009 (ip), vehicle: Klucel (hydroxypropylcellulose) (HPC)",94 % of control and 111 % of control
same,T/C,"dose: 18.75 mg/kg/injection, schedule: Q01DX009 (ip), vehicle: Klucel (hydroxypropylcellulose) (HPC)",119 % of control
same,T/C,"dose: 20.0 mg/kg/injection, schedule: Q01DX009 (ip), vehicle: Klucel (hydroxypropylcellulose) (HPC)",120 % of control and 123 % of control
same,T/C,"dose: 37.5 mg/kg/injection, schedule: Q01DX009 (ip), vehicle: Klucel (hydroxypropylcellulose) (HPC)",102 % of control
same,T/C,"dose: 40.0 mg/kg/injection, schedule: Q01DX009 (ip), vehicle: Klucel (hydroxypropylcellulose) (HPC)",157 % of control and 161 % of control
same,T/C,"dose: 75.0 mg/kg/injection, schedule: Q01DX009 (ip), vehicle: Klucel (hydroxypropylcellulose) (HPC)",90 % of control
Cc1cccc(OCC(=O)O)c1,T/C,[10],106 % of control
same,T/C,[11],93 % of control
same,T/C,[9],86 % of control
O=c1[nH]cc(F)c(=O)n1-c1ccco1,T/C,"dose: 12.5 mg/kg/injection, schedule: Q01DX011 (ip), vehicle: saline with Tween-80",122 % of control
same,T/C,"dose: 25.0 mg/kg/injection, schedule: Q01DX011 (ip), vehicle: saline with Tween-80",115 % of control
CC(=O)C12OC1(C)CC1C3CC=C4CC(O)CCC4(C)C3CCC12C (stereo unspecified),T/C,[7],107 % of control
same,T/C,[12],95 % of control
same,T/C,"dose: 400.0 mg/kg/injection, schedule: Q01DX009 (ip), vehicle: Klucel (hydroxypropylcellulose) (HPC)",105 % of control
CC1(C)N=C(N)N=C(N)N1c1cccc(CCCCc2cccc(S(=O)(=O)F)c2)c1,T/C,[10],115 % of control
same,T/C,[11],96 % of control
same,T/C,[9],87 % of control
COc1cc2c(cc1OC)C(CN)C2 (stereo unspecified),T/C,[8],94 % of control
same,T/C,[7],97 % of control
Cc1cc[n+](CCc2ccccc2)cc1,T/C,[10],92 % of control
same,T/C,[11],88 % of control
same,T/C,[9],95 % of control
same,T/C,[4],88 % of control
ClC1(Cl)C2C=CC=CCC21 (stereo unspecified),T/C,"dose: 50.0 mg/kg/injection, schedule: Q04DX003 (ip), vehicle: other",107 % of control
same,T/C,"dose: 100.0 mg/kg/injection, schedule: Q04DX003 (ip), vehicle: other",102 % of control
same,T/C,"dose: 200.0 mg/kg/injection, schedule: Q04DX003 (ip), vehicle: other",86 % of control
CN1CCN(CCCN2c3ccccc3Sc3ccc(C(F)(F)F)cc32)CC1,T/C,"dose: 0.58 mg/kg/injection, schedule: Q01DX009 (ip), vehicle: saline",117 % of control
same,T/C,"dose: 0.78 mg/kg/injection, schedule: Q01DX009 (ip), vehicle: saline",102 % of control
same,T/C,"dose: 1.17 mg/kg/injection, schedule: Q01DX009 (ip), vehicle: saline",112 % of control
same,T/C,"dose: 1.56 mg/kg/injection, schedule: Q01DX009 (ip), vehicle: saline",102 % of control
same,T/C,"dose: 2.34 mg/kg/injection, schedule: Q01DX009 (ip), vehicle: saline",112 % of control
same,T/C,"dose: 3.12 mg/kg/injection, schedule: Q01DX009 (ip), vehicle: saline",112 % of control and 110 % of control
same,T/C,"dose: 4.68 mg/kg/injection, schedule: Q01DX009 (ip), vehicle: saline",97 % of control
same,T/C,[13],102 % of control and 95 % of control
same,T/C,"dose: 9.37 mg/kg/injection, schedule: Q01DX009 (ip), vehicle: saline",115 % of control
same,T/C,[1],105 % of control and 102 % of control
same,T/C,[2],102 % of control
O=[N+]([O-])c1cc([N+](=O)[O-])c(Nn2c3ccccc3c3ccccc32)c([N+](=O)[O-])c1,T/C,[11],86 % of control
same,T/C,[9],88 % of control
same,T/C,[4],93 % of control
N#CCCN(CCC#N)/N=N\c1nc[nH]c1C(N)=O,T/C,[4],89 % of control
same,T/C,[5],100 % of control
same,T/C,[6],100 % of control
same,T/C,"dose: 400.0 mg/kg/injection, schedule: Q01DX009 (ip), vehicle: saline with Tween-80",100 % of control
CC(=O)OC1CCC2(C)C(CC(=O)C(C)C23CCC2(C=COC2)O3)C1(C)C (stereo unspecified),T/C,"dose: 6.0 mg/kg/injection, schedule: Q01DX009 (ip), vehicle: Klucel (hydroxypropylcellulose) (HPC)",101 % of control
same,T/C,"dose: 12.0 mg/kg/injection, schedule: Q01DX009 (ip), vehicle: Klucel (hydroxypropylcellulose) (HPC)",99 % of control
same,T/C,"dose: 24.0 mg/kg/injection, schedule: Q01DX009 (ip), vehicle: Klucel (hydroxypropylcellulose) (HPC)",95 % of control
same,T/C,"dose: 48.0 mg/kg/injection, schedule: Q01DX009 (ip), vehicle: Klucel (hydroxypropylcellulose) (HPC)",99 % of control
